Experimental data reported in US20110311601A1, “ANTIMICROBIAL MEDICAL DEVICES” (priority 2010, published 2011).
Where no end group is shown, it is not given here.

Key:
Assay in all cases: micro-dilution assay (MBC, LD90)
Format in all cases: cell-based
[1] = test system: Acinetobacter johnsonii ATCC 17909
Experimental: (§1) The anti-bacterial activity of hβD2 was tested by a micro-dilution assay. Bacteria and fungi were streaked from a glycerol stock onto a Brain Heart Infusion (BHI) agar plate (3.7% w/v BHI Bouillon, 1.5% w/v Agar), grown overnight at 37° C. and 30° C., respectively and subsequently used to inoculate 40 ml of 3.7% w/v BHI Bouillon without any antibiotics in 100 ml flasks. Fresh cells were harvested by centrifugation at 16000 rpm for 10 min and washed twice with 10 mM sodium phosphate buffer, pH 7.2. The optical density was adjusted to 10^4 cells/ml. For anti-bacterial testing hβD2 was incubated in one well of a microtiter plate containing 100 μl of the bacterial suspension. Therefore, ten microlitres of hβD2 solution with a range of final concentrations tested from 0.0125 up to and including 100 mg/l was added to the bacterial suspension and incubated at 37° C. and 30° C., respectively for 2 h before colony forming units were determined. Colony forming units (CFU) were determined after plating 100 μl of a 1:100 dilution of the bacterial suspension on petri dishes with BHI medium and incubating them overnight at 37° C. For every group of the hβD2 added samples and the controls, 5 independent anti-bacterial assays were performed. A control (NC) of bacterial growth was examined for every independent assay. The number of CFU on the control (consisting of a single petri dish) was set to 0% bactericidal activity. The reduction in the CFU resulting from the anti-bacterial activity of hβD2 was related to the absolute CFU of the control within every independent assay. This value, given as a percentage of the bacterial “killing” activity, was used to describe the antibacterial activity. This kind of normalisation of the antibacterial data was performed for every experimental group.
(§2) The antibacterial activity of hβD2 were given either as minimum bactericidal concentration (MBC), i.e., the minimum concentration of hβD2 in μg/ml which is required to kill 99.9% of the bacteria or fungi or as lethal dose (LD90), i.e., the concentration of hβD2 in μg/ml which is lethal for 90% of bacteria or fungi.

[2] = test system: Actinobacillus actinommycetemcomitans NCTC 10979
Experimental: as §1, §2

[3] = test system: Burkholderia cepacia ATCC 25416
Experimental: as §1, §2

[4] = test system: Candida glabrata BK 9570/02 (wild-type)
Experimental: as §1, §2

[5] = test system: Citrobacter freundii BK 3796/00 (wild-type)
Experimental: as §1, §2

[6] = test system: Cryptococcus neoformans ATCC 62066
Experimental: as §1, §2

[7] = test system: E. coli (ESBL 3) Va 4425/01 (wild-type)
Experimental: as §1, §2

[8] = test system: Enterobacter cloacae Va 11263/03 (wild-type)
Experimental: as §1, §2

[9] = test system: Enterococcus faecalis ATCC 51299 VRE
Experimental: as §1, §2

[10] = test system: Enterococcus faecium (VRE) Ulm 68 (wild-type)
Experimental: as §1, §2

[11] = test system: Enterococcus faecium (VRE) W 354 (wild-type)
Experimental: as §1, §2

[12] = test system: Issatchenkia orientalis ATCC 6258
Experimental: as §1, §2

[13] = test system: Klebsiella pneumoniae (ESBL) CF 2 (wild-type)
Experimental: as §1, §2

[14] = test system: Klebsiella pneumoniae (ESBL) CF 31 (wild-type)
Experimental: as §1, §2

[15] = test system: Proteus mirabilis ATCC 21100
Experimental: as §1, §2

[16] = test system: Proteus mirabilis UR 1536/03 (wild-type)
Experimental: as §1, §2

[17] = test system: Proteus mirabilis UR 1792/03 (wild-type)
Experimental: as §1, §2

[18] = test system: Providencia rettgeri NCTC 7475
Experimental: as §1, §2

[19] = test system: Pseudomonas aeruginosa ATCC 10145
Experimental: as §1, §2

[20] = test system: Pseudomonas aeruginosa ATCC 11440
Experimental: as §1, §2

[21] = test system: Pseudomonas aeruginosa CF 453 Va mr (wild-type)
Experimental: as §1, §2

[22] = test system: Pseudomonas putida BK 4912
Experimental: as §1, §2

[23] = test system: Staphylococcus aureus (MRSA 358) (wild-type)
Experimental: as §1, §2

[24] = test system: Staphylococcus aureus ATCC 43300 (MRSA)
Experimental: as §1, §2

[25] = test system: Streptococcus pneumoniae DSM 11865 (Penr)
Experimental: as §1, §2

[26] = test system: Yersinia enterococcus NCTC 11174
Experimental: as §1, §2

human β-defensin-2 (GIGDPVTCLKSGAICHPVFCPRRYKQIGTCGLPGTKCCKKP; ends and bridges not checked; cysteine pairing not given here) [hβD2, recombinant hβD2]
LD 90 = μg/ml 90% killing [1]: 0.39 µg/mL | MBC = μg/ml 99.9% killing [1]: 1.56 µg/mL | LD 90 = μg/ml 90% killing [2]: 100 µg/mL | MBC = μg/ml 99.9% killing [2]: >100 µg/mL | LD 90 = μg/ml 90% killing [3]: 100 µg/mL | MBC = μg/ml 99.9% killing [3]: >100 µg/mL | LD 90 = μg/ml 90% killing [4]: >100 µg/mL | MBC = μg/ml 99.9% killing [4]: >100 µg/mL | LD 90 = μg/ml 90% killing [5]: 3.125 µg/mL | MBC = μg/ml 99.9% killing [5]: 6.25 µg/mL | LD 90 = μg/ml 90% killing [6]: 0.78 µg/mL | MBC = μg/ml 99.9% killing [6]: 12.5 µg/mL | LD 90 = μg/ml 90% killing [7]: 6.25 µg/mL | MBC = μg/ml 99.9% killing [7]: 12.5 µg/mL | LD 90 = μg/ml 90% killing [8]: 12.5 µg/mL | MBC = μg/ml 99.9% killing [8]: 50 µg/mL | LD 90 = μg/ml 90% killing [9]: 50 µg/mL | MBC = μg/ml 99.9% killing [9]: 100 µg/mL | LD 90 = μg/ml 90% killing [10]: 100 µg/mL | MBC = μg/ml 99.9% killing [10]: >100 µg/mL | LD 90 = μg/ml 90% killing [11]: 50 µg/mL | MBC = μg/ml 99.9% killing [11]: 100 µg/mL | LD 90 = μg/ml 90% killing [12]: 6.25 µg/mL | MBC = μg/ml 99.9% killing [12]: 50 µg/mL | LD 90 = μg/ml 90% killing [13]: 6.25 µg/mL | MBC = μg/ml 99.9% killing [13]: 25 µg/mL | LD 90 = μg/ml 90% killing [14]: 6.25 µg/mL | MBC = μg/ml 99.9% killing [14]: 25 µg/mL | LD 90 = μg/ml 90% killing [15]: 50 µg/mL | MBC = μg/ml 99.9% killing [15]: >100 µg/mL | LD 90 = μg/ml 90% killing [16]: 100 µg/mL | MBC = μg/ml 99.9% killing [16]: >100 µg/mL | LD 90 = μg/ml 90% killing [17]: 3.125 µg/mL | MBC = μg/ml 99.9% killing [17]: 12.5 µg/mL | LD 90 = μg/ml 90% killing [18]: 100 µg/mL | MBC = μg/ml 99.9% killing [18]: >100 µg/mL | LD 90 = μg/ml 90% killing [19]: 6.25 µg/mL | MBC = μg/ml 99.9% killing [19]: 12.5 µg/mL | LD 90 = μg/ml 90% killing [20]: 12.5 µg/mL | MBC = μg/ml 99.9% killing [20]: 12.5 µg/mL | LD 90 = μg/ml 90% killing [21]: 12.5 µg/mL | MBC = μg/ml 99.9% killing [21]: 25 µg/mL | LD 90 = μg/ml 90% killing [22]: 6.25 µg/mL | MBC = μg/ml 99.9% killing [22]: 12.5 µg/mL | LD 90 = μg/ml 90% killing [23]: 100 µg/mL | MBC = μg/ml 99.9% killing [23]: >100 µg/mL | LD 90 = μg/ml 90% killing [24]: 100 µg/mL | MBC = μg/ml 99.9% killing [24]: >100 µg/mL | LD 90 = μg/ml 90% killing [25]: 50 µg/mL | MBC = μg/ml 99.9% killing [25]: 100 µg/mL | LD 90 = μg/ml 90% killing [26]: >100 µg/mL | MBC = μg/ml 99.9% killing [26]: >100 µg/mL
